# Active and inactive are the calls of the source. How the calls were made is not given here.
# Columns and labels:
# [1] = nonselective inhibitors of cellular cAMP signaling, dose response, counter-screen for MC4R biased antagonist project, cell-based, TR-FRET cAMP detection (AID 602305); format: functional;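 further: U2OS cells stimulated with forskolin near its EC80 as the cAMP inducer; potency is for inhibition of forskolin-stimulated cAMP signaling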
# [2] = biological target: T1, Oxysterols receptor LXR-beta (Homo sapiens, UniProt P55055); assay: LXR agonists, Gal4 luciferase reporter, dose response, counter-screen for ssDAF-12 agonist project, cell-based, luminescence, HEK293, S. stercoralis campaign (AID 720737); format: functional; details: read-out: IC50 (the source's name)
# T1 sequence (P55055 whole entry): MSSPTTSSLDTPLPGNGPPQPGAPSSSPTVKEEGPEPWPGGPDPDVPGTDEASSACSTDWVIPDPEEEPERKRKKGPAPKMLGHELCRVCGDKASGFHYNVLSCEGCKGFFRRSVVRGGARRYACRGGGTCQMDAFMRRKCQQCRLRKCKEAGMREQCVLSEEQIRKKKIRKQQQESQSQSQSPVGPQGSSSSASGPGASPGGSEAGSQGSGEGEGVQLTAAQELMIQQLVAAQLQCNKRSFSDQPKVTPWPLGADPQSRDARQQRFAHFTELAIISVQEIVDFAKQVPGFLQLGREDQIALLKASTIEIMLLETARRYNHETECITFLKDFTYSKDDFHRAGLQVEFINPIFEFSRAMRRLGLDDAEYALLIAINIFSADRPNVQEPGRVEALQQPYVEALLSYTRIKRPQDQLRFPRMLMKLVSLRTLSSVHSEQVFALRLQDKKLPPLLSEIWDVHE
# [3] = biological target: T1, Oxysterols receptor LXR-beta; format: functional, cell-based
SMILES,IC50 [1],EC50 [2],EC50 [3]
Cc1nn(-c2ccccc2)c(Cl)c1CN(C(=O)CCl)c1ccc(Cl)cc1,> 64.6 µM (inactive),–,–
Oc1ccccc1/C=C/c1noc(-c2ccccc2O)n1,–,> 67.6 µM (inactive),> 67.6 µM (inactive)

# Source: ChEMBL document CHEMBL1201862, “PubChem BioAssay data set” (2004)
